Data: ChEMBL document CHEMBL4402557, “Nidufexor (LMB763), a Novel FXR Modulator for the Treatment of Nonalcoholic Steatohepatitis” (J Med Chem, 2020)
The source made the active and inactive calls. No cut-off for these calls is given here.

Columns and labels:
[1] = Half life in Wistar rat at 30 mg/kg, po; assay type: ADME, organism-based; details: in vivo
[2] = biological target: T1, Peroxisome proliferator-activated receptor gamma (Homo sapiens, UniProt P37231); test: Agonist activity at PPARgamma (unknown origin) incubated for 2 hrs by TR-FRET assay
T1 sequence (P37231 whole entry): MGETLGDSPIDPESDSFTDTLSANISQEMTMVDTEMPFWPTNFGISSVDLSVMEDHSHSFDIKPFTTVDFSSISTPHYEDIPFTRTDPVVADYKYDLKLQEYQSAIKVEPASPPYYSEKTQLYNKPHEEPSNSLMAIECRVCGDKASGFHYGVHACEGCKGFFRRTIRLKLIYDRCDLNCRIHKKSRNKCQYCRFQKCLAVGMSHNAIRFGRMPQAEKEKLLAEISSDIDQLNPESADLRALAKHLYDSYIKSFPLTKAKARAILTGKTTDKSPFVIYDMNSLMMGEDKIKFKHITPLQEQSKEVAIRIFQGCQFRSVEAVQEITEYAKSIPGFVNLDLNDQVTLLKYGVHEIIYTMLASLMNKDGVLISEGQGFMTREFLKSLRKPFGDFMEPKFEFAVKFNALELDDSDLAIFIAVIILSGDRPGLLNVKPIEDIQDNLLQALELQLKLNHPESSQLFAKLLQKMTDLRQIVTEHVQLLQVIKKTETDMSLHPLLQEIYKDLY

Estrogen receptor = biological target: T2, Estrogen receptor (Homo sapiens, UniProt P03372); test: Agonist activity at GAL4-fused ERalpha (unknown origin) expressed in HEK293T cells incubated for 24 by BrightGlo reagent based assay; assay type: cell-based
T2 sequence (P03372 whole entry): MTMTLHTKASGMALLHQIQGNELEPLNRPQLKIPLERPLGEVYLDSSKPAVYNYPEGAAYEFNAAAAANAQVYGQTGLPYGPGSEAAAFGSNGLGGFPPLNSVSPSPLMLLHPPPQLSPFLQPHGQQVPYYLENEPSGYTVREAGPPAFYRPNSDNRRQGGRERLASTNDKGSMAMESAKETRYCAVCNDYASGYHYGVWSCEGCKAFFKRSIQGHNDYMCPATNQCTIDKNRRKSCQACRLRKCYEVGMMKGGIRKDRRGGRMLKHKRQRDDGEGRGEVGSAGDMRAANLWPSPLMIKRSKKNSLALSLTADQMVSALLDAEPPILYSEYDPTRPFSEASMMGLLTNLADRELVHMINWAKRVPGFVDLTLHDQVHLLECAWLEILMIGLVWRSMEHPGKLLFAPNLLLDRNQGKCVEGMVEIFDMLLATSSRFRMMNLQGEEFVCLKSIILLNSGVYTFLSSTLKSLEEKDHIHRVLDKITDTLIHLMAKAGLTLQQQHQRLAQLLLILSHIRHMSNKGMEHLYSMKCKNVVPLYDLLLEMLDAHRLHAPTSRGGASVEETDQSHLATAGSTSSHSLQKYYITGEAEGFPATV

[3] = Ratio of AUC in liver to plasma in Wistar rat liver at 10 mg/kg, po; assay type: ADME, organism-based; details: read-out: Ratio AUC
[4] = Oral bioavailability in Wistar rat at 10 mg/kg in presence of 0.5% CMC/0.5% Tween 80; assay type: ADME, organism-based; details: in vivo
[5] = Clearance in dog at 0.5 mg/kg, iv; assay type: ADME, organism-based, Canis lupus familiaris; details: in vivo
[6] = AUC in Wistar rat at 100 mg/kg, po; assay type: ADME, organism-based; details: in vivo
[7] = Terminal half life in orally dosed rat; assay type: ADME, organism-based; details: in vivo, po, read-out: beta t1/2 (converted)
[8] = Clearance in rabbit at 5 mg/kg, iv; assay type: ADME, organism-based, Oryctolagus cuniculus; details: in vivo
Mus musculus [9] = organism: Mus musculus; test: Anti Steato-hepatitic activity in C57BL/6J mouse STAM model assessed as change in Nr0b2 gene level in liver; assay type: functional, organism-based
Mus musculus [10] = test: Anti Steato-hepatitic activity in STZ/HFD induced oral dosed C57BL/6J mouse STAM model assessed as reduction in microvesicular fat deposition administered via oral gavage once daily for 3 weeks and measured on 9 week by H and E staining based assay; assay type: functional, organism-based
Mus musculus [11] = test: Anti Steato-hepatitic activity in STZ/HFD induced oral dosed C57BL/6J mouse STAM model assessed as reduction in hepatocellular ballooning administered via oral gavage once daily for 3 weeks and measured on 9 week by H and E staining based assay; assay type: functional, organism-based
[12] = biological target: T3, G-protein coupled bile acid receptor 1 (Homo sapiens) (UniProt Q8TDU6); test: Agonist activity at human GPBAR1 expressed in Jurkat cells assessed as increase in intracellular cAMP level incubated for 1 hr by fluorescence based assay relative to control; assay type: functional, cell-based
T3 sequence (whole entry): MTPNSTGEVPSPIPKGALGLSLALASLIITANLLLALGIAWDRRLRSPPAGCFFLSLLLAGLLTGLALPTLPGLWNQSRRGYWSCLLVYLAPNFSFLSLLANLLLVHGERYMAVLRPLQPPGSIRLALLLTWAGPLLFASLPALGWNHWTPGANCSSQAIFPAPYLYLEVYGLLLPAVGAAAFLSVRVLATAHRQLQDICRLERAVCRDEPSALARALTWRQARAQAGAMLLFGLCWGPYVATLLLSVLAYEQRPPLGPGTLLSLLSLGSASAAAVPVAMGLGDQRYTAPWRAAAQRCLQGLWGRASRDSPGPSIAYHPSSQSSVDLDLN

[13] = Oral bioavailability in Wistar rat at 30 mg/kg; assay type: ADME, organism-based; details: in vivo
[14] = AUC in Wistar rat at 30 mg/kg, po; assay type: ADME, organism-based; details: in vivo
[15] = Clearance in mouse at 3 mg/kg, iv; assay type: ADME, organism-based; details: in vivo
[16] = Volume of distribution at steady state in dog at 0.5 mg/kg, iv; assay type: ADME, organism-based, Canis lupus familiaris; details: in vivo, read-out: Vdss
[17] = Oral bioavailability in mouse at 10 mg/kg; assay type: ADME, organism-based; details: in vivo
Rattus norvegicus = test: In-vivo agonist activity at FXR in orally dosed Han Wistar rat assessed as upregulation of FGF15 mRNA level in ileum administered via oral gavage once daily for 14 days measured post last dose by qRT-PCR analysis; assay type: functional, organism-based
Mus musculus [18] = organism: Mus musculus; test: Anti Steato-hepatitic activity in C57BL/6J mouse STAM model assessed as change in Aldh1l2 gene level in liver; assay type: functional, organism-based
[19] = biological target: T4, Retinoic acid receptor RXR-alpha (Homo sapiens, UniProt P19793); test: Agonist activity at GAL4-fused RXR LBD (unknown origin) expressed in HEK293T cells incubated for 24 by BrightGlo reagent based assay; assay type: cell-based
T4 sequence (P19793 whole entry): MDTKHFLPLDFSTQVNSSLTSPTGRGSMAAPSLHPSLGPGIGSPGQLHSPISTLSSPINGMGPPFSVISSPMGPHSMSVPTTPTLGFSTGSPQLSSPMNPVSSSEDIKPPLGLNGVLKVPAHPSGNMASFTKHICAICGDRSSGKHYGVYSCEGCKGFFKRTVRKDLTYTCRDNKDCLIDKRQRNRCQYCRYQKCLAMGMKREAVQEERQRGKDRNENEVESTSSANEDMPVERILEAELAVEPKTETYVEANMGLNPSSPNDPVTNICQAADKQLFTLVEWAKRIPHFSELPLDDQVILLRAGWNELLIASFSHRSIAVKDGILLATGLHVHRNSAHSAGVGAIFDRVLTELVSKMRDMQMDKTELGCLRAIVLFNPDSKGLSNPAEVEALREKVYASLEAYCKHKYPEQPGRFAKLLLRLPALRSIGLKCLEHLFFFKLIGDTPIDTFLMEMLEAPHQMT

Q: For `Cn1nc(C(=O)N(Cc2ccccc2)Cc2ccc(C(=O)O)cc2)c2c1-c1cc(Cl)ccc1OC2` [NIDUFEXOR], which half-life [1] is on record?
A: 6.3 h

Q: What about the EC50 [2] of the same molecule?
A: > 30 µM

Q: And the EC50 (Estrogen receptor)?
A: > 10 µM

Q: And the Kp [3]?
A: 1.5

Q: What about the bioavailability [4] of the same molecule?
A: 10%

Q: And the clearance [5]?
A: 3.6 mL/min/kg

Q: And the AUC [6]?
A: 399 µM·h

Q: And the half-life [7]?
A: 13 h

Q: And the clearance [8]?
A: 5.6 mL/min/kg

Q: What about the Activity (Mus musculus [9]) of the same molecule?
A: Active

Q: What about the Activity (Mus musculus [10]) of the same molecule?
A: Dose-dependent effect

Q: What about the Activity (Mus musculus [11]) of the same molecule?
A: Dose-dependent effect

Q: What about the Efficacy [12] of the same molecule?
A: 13%

Q: And the bioavailability [13]?
A: 52%

Q: What about the AUC [14] of the same molecule?
A: 76.5 µM·h

Q: What about the clearance [15] of the same molecule?
A: 9.8 mL/min/kg

Q: And the Vd [16]?
A: 1.1 L/kg

Q: What about the bioavailability [17] of the same molecule?
A: 115%

Q: And the Activity (Rattus norvegicus)?
A: Dose-dependent effect

Q: What about the Activity (Mus musculus [18]) of the same molecule?
A: Active

Q: What about the EC50 [19] of the same molecule?
A: > 10 µM
